The values that follow come from US11149040B2, “Fused triazole agonists of the APJ receptor” (AMGEN INC., priority 2017, dated 2021).

pEC50: −log10 of the molar value.

A word on the pEC50: it is the EC50 on a negative log10 scale, so that one unit is a factor of ten.

human APJ receptor, sequence (P35414 whole entry): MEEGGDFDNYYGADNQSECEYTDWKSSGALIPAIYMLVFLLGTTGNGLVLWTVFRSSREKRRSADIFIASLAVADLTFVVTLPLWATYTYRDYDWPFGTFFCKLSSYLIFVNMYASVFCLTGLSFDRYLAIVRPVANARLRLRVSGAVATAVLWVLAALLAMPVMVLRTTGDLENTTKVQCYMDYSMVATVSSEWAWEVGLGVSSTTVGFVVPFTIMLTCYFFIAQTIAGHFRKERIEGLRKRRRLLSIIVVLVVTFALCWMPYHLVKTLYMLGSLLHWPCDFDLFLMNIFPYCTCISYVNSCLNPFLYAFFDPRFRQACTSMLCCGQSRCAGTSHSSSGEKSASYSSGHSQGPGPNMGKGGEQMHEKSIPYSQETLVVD

The target in this experiment is human APJ receptor (Homo sapiens (Human), UniProt P35414). As to the kind of experiment: [35S]GTPγS binding assay on membranes from CHO cells stably expressing human APJ receptor. As to conditions: read-out: Activity hAPJ SPA EC50 IP. The format is biochemical. How it is done:
[^35S]GTPγS Binding The human APJ receptor was cloned by polymerase chain reaction and the gene encoding the receptor was subcloned in pFLAG-CMV™-3 expression vector (Sigma, Saint Louis, Mo. USA) in-house at Amgen. A GTPγS binding assay was performed on membranes prepared from CHO cells stably expressing human APJ receptor. The optimum experimental conditions for the concentrations of GDP, MgCl2, and NaCl in the assay buffer were initially determined. […] Incubation was at RT for 90 min and the microplate was read using a ViewLux™ ultra HTS Microplate Imager (PerkinElmer, Inc.). All the results presented are means of several independent experiments and analyzed by non-linear regression methods using the commercially available program Prism (GraphPad, San Diego, Calif.) providing the EC50 values detailed in Table 13.
For `COC[C@@H]1COc2ccc(OC)nc2-c2nnc(NS(=O)(=O)[C@@H](C)[C@H](C)c3ncc(C)cn3)n21` (mixture of isomers) [Example 10.0, (2S,3R)-N-((5R)-10-methoxy-5-(methoxymethyl)-5,6-dihydropyrido[2,3-f][1,2,4]triazolo[4,3-d][1,4]oxazepin-3-yl)-3-(5-methyl-2-pyrimidinyl)-2-butanesulfonamide and (2S,3R)-N-((5S)-10-methoxy-5-(methoxymethyl)-5,6-dihydropyrido[2,3-f][1,2,4]triazolo[4,3-d][1,4]oxazepin-3-yl)-3-(5-methyl-2-pyrimidinyl)-2-butanesulfonamide], the pEC50 is 6.10.

Take `COC[C@@H]1COc2ccc(OC)nc2-c2nnc(NS(=O)(=O)[C@@H](C)[C@@H](OC(C)C)c3ncc(C)cn3)n21` (mixture of isomers) [Example 11.0, (1S,2S)-N-((5R)-10-methoxy-5-(methoxymethyl)-5,6-dihydropyrido[2,3-f][1,2,4]triazolo[4,3-d][1,4]oxazepin-3-yl)-1-(5-methyl-2-pyrimidinyl)-1-(2-propanyloxy)-2-propanesulfonamide and (1S,2S)-N-((5S)-10-methoxy-5-(methoxymethyl)-5,6-dihydropyrido[2,3-f][1,2,4]triazolo[4,3-d][1,4]oxazepin-3-yl)-1-(5-methyl-2-pyrimidinyl)-1-(2-propanyloxy)-2-propanesulfonamide]: the pEC50 is 7.39.

On to `COC[C@@H]1COc2cc(F)c(F)cc2-c2nnc(NS(=O)(=O)[C@@H](C)[C@@H](OC(C)C)c3ncc(C)cn3)n21` (mixture of isomers) [Example 16.0, (1S,2S)-N-((5R)-9,10-difluoro-5-(methoxymethyl)-5,6-dihydro[1,2,4]triazolo[4,3-d][1,4]benzoxazepin-3-yl)-1-(5-methyl-2-pyrimidinyl)-1-(2-propanyloxy)-2-propanesulfonamide and (1S,2S)-N-((5S)-9,10-difluoro-5-(methoxymethyl)-5,6-dihydro[1,2,4]triazolo[4,3-d][1,4]benzoxazepin-3-yl)-1-(5-methyl-2-pyrimidinyl)-1-(2-propanyloxy)-2-propanesulfonamide], for which the negative-log EC50 (pEC50) was 5.77.

As for `COC[C@@H]1COc2ccc(F)cc2-c2nnc(NS(=O)(=O)[C@@H](C)[C@@H](OC(C)C)c3ncc(C)cn3)n21` (mixture of isomers) [Example 23.0, (1S,2S)-N-((5R)-10-fluoro-5-(methoxymethyl)-5,6-dihydro[1,2,4]triazolo[4,3-d][1,4]benzoxazepin-3-yl)-1-(5-methyl-2-pyrimidinyl)-1-(2-propanyloxy)-2-propanesulfonamide and (1S,2S)-N-((5S)-10-fluoro-5-(methoxymethyl)-5,6-dihydro[1,2,4]triazolo[4,3-d][1,4]benzoxazepin-3-yl)-1-(5-methyl-2-pyrimidinyl)-1-(2-propanyloxy)-2-propanesulfonamide], the negative logarithm of the EC50 (pEC50) was 7.43.

On to `Cc1cnc([C@H](OC(C)C)[C@H](C)S(=O)(=O)Nc2nnc3n2[C@H](CO)COc2ncccc2-3)nc1` (mixture of isomers) [Example 30.0, (1S,2S)-N-((5R)-5-(hydroxymethyl)-5,6-dihydropyrido[3,2-f][1,2,4]triazolo[4,3-d][1,4]oxazepin-3-yl)-1-(5-methyl-2-pyrimidinyl)-1-(2-propanyloxy)-2-propanesulfonamide and (1S,2S)-N-((5S)-5-(hydroxymethyl)-5,6-dihydropyrido[3,2-f][1,2,4]triazolo[4,3-d][1,4]oxazepin-3-yl)-1-(5-methyl-2-pyrimidinyl)-1-(2-propanyloxy)-2-propanesulfonamide], for which the negative logarithm of the EC50 (pEC50) was 6.34.

For `CC(C)O[C@@H](c1ncc(Cl)cn1)[C@H](C)S(=O)(=O)Nc1nnc2n1[C@H](CO)COc1ncccc1-2` (mixture of isomers) [Example 31.0, (1S,2S)-1-(5-chloro-2-pyrimidinyl)-N-((5R)-5-(hydroxymethyl)-5,6-dihydropyrido[3,2-f][1,2,4]triazolo[4,3-d][1,4]oxazepin-3-yl)-1-(2-propanyloxy)-2-propanesulfonamide and (1S,2S)-1-(5-chloro-2-pyrimidinyl)-N-((5S)-5-(hydroxymethyl)-5,6-dihydropyrido[3,2-f][1,2,4]triazolo[4,3-d][1,4]oxazepin-3-yl)-1-(2-propanyloxy)-2-propanesulfonamide], the pEC50 is 6.14.

Take `COC[C@@H]1COc2ncccc2-c2nnc(NS(=O)(=O)[C@@H](C)[C@@H](OC(C)C)c3ncc(C)cn3)n21` (mixture of isomers) [Example 32.0, (1S,2S)-N-((5R)-5-(methoxymethyl)-5,6-dihydropyrido[3,2-f][1,2,4]triazolo[4,3-d][1,4]oxazepin-3-yl)-1-(5-methyl-2-pyrimidinyl)-1-(2-propanyloxy)-2-propanesulfonamide and (1S,2S)-N-((5S)-5-(methoxymethyl)-5,6-dihydropyrido[3,2-f][1,2,4]triazolo[4,3-d][1,4]oxazepin-3-yl)-1-(5-methyl-2-pyrimidinyl)-1-(2-propanyloxy)-2-propanesulfonamide]: the pEC50 is 6.85.

As to `COC[C@@H]1COc2c(OC)cccc2-c2nnc(NS(=O)(=O)[C@@H](C)[C@@H](OC(C)C)c3ncc(C)cn3)n21` (mixture of isomers) [Example 33.0, (1S,2S)-N-((5R)-8-methoxy-5-(methoxymethyl)-5,6-dihydro[1,2,4]triazolo[4,3-d][1,4]benzoxazepin-3-yl)-1-(5-methyl-2-pyrimidinyl)-1-(2-propanyloxy)-2-propanesulfonamide and (1S,2S)-N-((5S)-8-methoxy-5-(methoxymethyl)-5,6-dihydro[1,2,4]triazolo [4,3-d][1,4]benzoxazepin-3-yl)-1-(5-methyl-2-pyrimidinyl)-1-(2-propanyloxy)-2-propanesulfonamide], the pEC50 is 7.82.

On to `CO[C@H](c1ncc(C)cn1)[C@H](C)S(=O)(=O)Nc1nnc2n1[C@H](CO)COc1ncccc1-2` (mixture of isomers) [Example 36.0, (1R,2S)-N-((5R)-5-(hydroxymethyl)-5,6-dihydropyrido[3,2-f][1,2,4]triazolo[4,3-d][1,4]oxazepin-3-yl)-1-methoxy-1-(5-methyl-2-pyrimidinyl)-2-propanesulfonamide and (1R,2S)-N-((5S)-5-(hydroxymethyl)-5,6-dihydropyrido[3,2-f][1,2,4]triazolo[4,3-d][1,4]oxazepin-3-yl)-1-methoxy-1-(5-methyl-2-pyrimidinyl)-2-propanesulfonamide], for which the negative-log EC50 (pEC50) is 5.74.

As for `COC[C@@H]1COc2ncccc2-c2nnc(NS(=O)(=O)[C@@H](C)[C@@H](OC(C)C)c3ncc(Cl)cn3)n21` (mixture of isomers) [Example 37.0, (1S,2S)-1-(5-chloro-2-pyrimidinyl)-N-((5R)-5-(methoxymethyl)-5,6-dihydropyrido[3,2-f][1,2,4]triazolo[4,3-d][1,4]oxazepin-3-yl)-1-(2-propanyloxy)-2-propanesulfonamide and (1S,2S)-1-(5-chloro-2-pyrimidinyl)-N-((5S)-5-(methoxymethyl)-5,6-dihydropyrido[3,2-f][1,2,4]triazolo[4,3-d][1,4]oxazepin-3-yl)-1-(2-propanyloxy)-2-propanesulfonamide], the negative logarithm of the EC50 (pEC50) was 7.52.

In the case of `COC[C@@H]1COc2ccc(F)cc2-c2nnc(NS(=O)(=O)CCc3ncc(C)cn3)n21` (mixture of isomers) [Example 42.0, N-((5R)-10-fluoro-5-(methoxymethyl)-5,6-dihydro[1,2,4]triazolo[4,3-d][1,4]benzoxazepin-3-yl)-2-(5-methyl-2-pyrimidinyl)ethanesulfonamide and N-((5S)-10-fluoro-5-(methoxymethyl)-5,6-dihydro[1,2,4]triazolo[4,3-d][1,4]benzoxazepin-3-yl)-2-(5-methyl-2-pyrimidinyl)ethanesulfonamide], the pEC50 is 5.39.

Take `CO[C@H](c1ncc(C)cn1)[C@H](C)S(=O)(=O)Nc1nnc2n1[C@H](COC(C)C)COc1ncccc1-2` (mixture of isomers) [Example 56.0, (1R,2S)-N-((R)-5-(isopropoxymethyl)-5,6-dihydropyrido[3,2-f][1,2,4]triazolo[4,3-d][1,4]oxazepin-3-yl)-1-methoxy-1-(5-methylpyrimidin-2-yl)propane-2-sulfonamide and (1R,2S)-N-((S)-5-(isopropoxymethyl)-5,6-dihydropyrido[3,2-f][1,2,4]triazolo[4,3-d][1,4]oxazepin-3-yl)-1-methoxy-1-(5-methylpyrimidin-2-yl)propane-2-sulfonamide]: the negative-log EC50 (pEC50) is 5.66.

On to `Cc1cnc([C@@H](OC(C)C)[C@H](C)S(=O)(=O)Nc2nnc3n2[C@H](CO)COc2ncccc2-3)nc1` (mixture of isomers) [Example 57.0, (1R,2S)-N-((5R)-5-(hydroxymethyl)-5,6-dihydropyrido[3,2-f][1,2,4]triazolo[4,3-d][1,4]oxazepin-3-yl)-1-(5-methyl-2-pyrimidinyl)-1-(2-propanyloxy)-2-propanesulfonamide and (1R,2S)-N-((5S)-5-(hydroxymethyl)-5,6-dihydropyrido[3,2-f][1,2,4]triazolo[4,3-d][1,4]oxazepin-3-yl)-1-(5-methyl-2-pyrimidinyl)-1-(2-propanyloxy)-2-propanesulfonamide], for which the pEC50 was below 4.90.
